{"source": "patent US5565437A", "about": "“2',3'-dideoxy-2'-fluoro-purine nucleosides and methods for using same” (priority 1992, dated 1996)", "key": {"[1]": {"assay": "Acid-catalyzed decomposition / stability in acid, 37° C., HPLC", "assay_type": "physicochemical", "experimental": "In order to study acid-catalyzed decomposition of the subject compounds, a pH 1 buffer was prepared by dissolving 0.746 g KCl and 26.8 g 1.0N HCl in sufficient distilled water to give 200 ml total volume. Ten ml of buffer, prewarmed to 37° C., was added to 102 micrograms of ddA (Compound I), and 93 micrograms of each compounds II or III, 2',3'-dideoxy-2'-alpha-flourodeminine or 2'-beta-flouro-2',3'-dideoxyadenosine. The samples were shaken and maintained at 37° C. Aliquots were taken at timed intervals and neutralized immediately with 0.1 NaOH and chilled on ice. The amounts of ddA and the fluorinated analogs were determined by HPLC analysis using a 4.6×250 mm […] Ultrasphere ODS column protected by a guard column packed with 37-50 micron Vydac 201SC. Elution was with 12% acetonitrile in 0.01 M pH 6.8 phosphate buffer at 1.0 ml/minute. The integrator peak areas were plotted as a function of time, and the data was fitted to a first order decomposition curve by a computer program (MLAB)."}, "[2]": {"tested_on": "human immunodeficiency virus (HIV; HTLV-IIIB virus) in ATH8 cells", "assay": "HIV cytopathic assay using ATH8 cells (protection against the cytopathic effect of HIV)", "assay_type": "cell-based", "experimental": "To test the cytopathic effect of the compounds of the present invention, HIV cytopathic assay was performed using ATH8 cells as described by Mitsuya et al., Proc. Nat. Acad. Sci. USA, 83, 1911 (1986). In brief, 2×10^5 ATH8 cells were preexposed to polybrene, exposed to HTLV-IIIB virus (2000 virus particles/cell) for 45 minutes after treatment with polybrene, resuspended in 1 ml of culture medium containing Interleukin 2 in the presence or absence of various concentrations of compounds, and incubated in culture tubes at 37° C. in 5% CO2 /95% air humidified atmosphere. Control cells were treated similarly but were not exposed to the virus. At various times on days 5 to 7 of culture, the total viable cells were counted in a hemocytometer by the trypan blue dye exclusion method. In the HIV cytopathic effect assay using ATH8 cells, 0.5 to 5 virus particles per cell represent the minimum cytopathic dose of the virus."}, "adenosine deaminase": {"tested_on": "adenosine deaminase", "assay": "Metabolism by adenosine deaminase in the body", "assay_type": "in vitro ADME"}, "HIV": {"tested_on": "HIV", "details": "background statement; cited from earlier work"}, "[3]": {"tested_on": "human immunodeficiency virus (HIV)", "details": "background statement; cited from earlier work"}, "[4]": {"details": "relative to adenosine; cited from earlier work"}}}
{"compound": "Nc1ncnc2c1ncn2[C@@H]1O[C@H](CO)C[C@H]1F", "note": "[Compound II, 2',3'-dideoxy-2'-alpha-flouroadenosine]", "values": [{"measurement": "stability to acid-catalyzed decomposition", "setting": "[1]; pH 2, 37° C. (FIG. 2)", "result": "stable to acid-catalyzed decomposition"}]}
{"compound": "Nc1ncnc2c1ncn2[C@@H]1O[C@H](CO)C[C@@H]1F", "note": "[Compound III, 2',3'-dideoxy-2'-beta-fluoroadenosine]", "values": [{"measurement": "change after exposure to acidic conditions", "setting": "[1]; 24 hour exposure, pH 1 (FIG. 3)", "result": "completely unchanged"}, {"measurement": "durability of the antiviral effect, compared with the parent compound I", "setting": "[2]; compared with compound I (ddA)", "result": "as durable as that of the parent compound"}, {"measurement": "activity and potency in protecting ATH8 cells against the cytopathic effect of HIV, compared with ddA", "setting": "[2]; substantial viral excess, FIG. 1", "result": "approximately as active and potent as ddA"}, {"measurement": "metabolism by adenosine deaminase", "setting": "adenosine deaminase", "result": "metabolism of 2',3'-dideoxy-2'-beta-fluoroadenosine to compound IV"}]}
{"compound": "Cc1ccc(C(=O)Nc2ccc(S(=O)(=O)O)c3cc(S(=O)(=O)O)cc(S(=O)(=O)O)c23)cc1NC(=O)c1cccc(NC(=O)Nc2cccc(C(=O)Nc3cc(C(=O)Nc4ccc(S(=O)(=O)O)c5cc(S(=O)(=O)O)cc(S(=O)(=O)O)c45)ccc3C)c2)c1", "note": "[suramin]", "values": [{"measurement": "HIV replication in the presence of compound", "setting": "HIV", "result": "considerably slower"}]}
{"compound": "antimoniotungstate", "values": [{"measurement": "HIV replication in the presence of compound", "setting": "HIV", "result": "considerably slower"}]}
{"compound": "Nc1ncnc2c1ncn2[C@H]1CC[C@@H](CO)O1", "note": "[Compound I, 2',3'dideoxyadenosine]", "values": [{"measurement": "in vitro activity against HIV", "setting": "[3]", "result": "potent in vitro activity"}, {"measurement": "half-life", "setting": "[1]; ph 1 kcl/hcl buffer, pH 1.0, 37° C. (FIG. 3)", "result": 35, "unit": "s"}, {"measurement": "rate of acid-catalyzed hydrolysis of the glycosidic bond, times faster than adenosine", "setting": "[4]", "result": "40,000 times"}]}
